Source: publication PMC10804667, “Molecular mechanism of Fe^3+ binding inhibition to Vibrio metschnikovii ferric ion‐binding protein, FbpA, by rosmarinic acid and its hydrolysate, danshensu” (Protein Science : A Publication of the Protein Society, 2024)
Converted amounts (≈) assume the structure as drawn. “And” between values parts separate entries of the source, which are not always exact repeats. Equal values may be shown once.

Legend:
VmFbpA [1] = test: 6×His-based VmFbpA inhibition assay (pull-down assay) of Fe3+ binding; assay type: biochemical, Vibrio metschnikovii; conditions: 60 min at 4°C, 20 mM Tris–HCl pH 8.0, 50 mM NaHCO3, 100 mM NaCl, read-out: IC50 to VmFbpA (inhibition of Fe^3+ binding)
Method: (§1) Fe^3+‐bound His6‐VmFbpA (30 μM, 200 μL) was loaded onto a 40 μL Ni‐NTA slurry resin (bed volume: 20 μL) in a Micro Bio‐Spin column (Bio‐Rad) and incubated at 4°C for 30 min. The column was extensively washed with wash buffer (20 mM Tris–HCl, pH 8.0, 50 mM NaHCO3, 100 mM NaCl). Various concentrations of RA, DSS, or CA (200 μL) were added to the column and incubated for 60 min at 4°C in a solvent consisting of 20 mM Tris–HCl, pH 8.0, 50 mM NaHCO3, and 100 mM NaCl. The column was washed extensively with wash buffer and eluted with 100 μL of elution buffer (wash buffer containing 250 mM imidazole). The Fe concentration of the eluent was determined using ICP‐MS as reported previously (Lu et al. [2019]) and adjusted to the protein concentration, which was measured using a Pierce 660 nm Protein Assay. Samples without FeCl3 were used as a negative control group and samples lacking inhibitors were used as a positive control group. All buffers contained 0.3% DMSO to solubilize the inhibitors, unless otherwise indicated.
(§2) The protein inhibitory rates were calculated using the following formula: Inhibitory rates%=1−Conc.Fesample−Conc.Feapo/Conc.Feholo−Conc.Feapo×100%
(§3) The inhibitory rate was plotted and fitted as a function of inhibitor concentration by a logarithmic function model using GraphPad Prism (version: 9.5.0) software. The 50% inhibitory concentration (IC50) was calculated by reading the concentration at the inhibitory rate of 50%.

VmFbpA [2] = test: Isothermal titration calorimetry (ITC) of ligand binding to VmFbpA; design: species or system Vibrio metschnikovii; conditions: 298 K, 20 mM HEPES pH 8.0, 50 mM NaCl, apo VmFbpA, read-out: K D for VmFbpA
Method: The 6× His‐free apo VmFbpA samples were dialyzed overnight at 4°C against dialysis buffer (20 mM pH 8.0 HEPES, 50 mM NaCl). ITC was performed using MicroCal iTC200 (Malvern). RA, DSS, or CA was dissolved in dialysis buffer at a final concentration of 400 μM and injected 20 times by a motor‐driven syringe into 200 μL of 20 μM Apo VmFbpA. The first injection volume was 0.1 μL and subsequent injection volumes were 2.0 μL. The reference cell of the microcalorimeter was filled with 200 μL of the corresponding dialysis buffer. The titrations were performed at room temperature. The data were analyzed using MicroCal LLC iTC 200 for Windows (Malvern). All experiments were repeated at least twice to ensure reproducibility.

[3] = Fe3+ reduction capacity (o-phenanthroline assay); conditions: 40 μM Fe^3+; concentration giving 20 μM Fe^2+; read-out: EC50 for reduction from Fe^3+ to Fe^2+
Method: Solutions containing 40 μM FeCl3 and varying concentrations of RA, DSS, and CA (0, 0.625, 1.25, 5, 10, 20, and 40 μM) were prepared and analyzed. Each sample was combined with 0.25% o‐phenanthroline (2 mL) followed by a pH adjustment to 3.5 with HCl, and Milli‐Q water was added to reach a final volume of 25 mL. After incubation at room temperature for 1 h, the absorbance at 510 nm was measured using a microplate spectrophotometer (Benchmark Plus, Bio‐Rad), and the concentration of Fe^2+ was determined using FeSO4·7H2O as a standard. The Fe^2+ concentrations were plotted and fitted as a function of Log2(inhibitor concentration) using GraphPad Prism (version: 9.5.0) software with a nonlinear regression model. The half maximal effective concentration (EC50) was calculated by reading the inhibitor concentrations at an Fe^2+ concentration of 20 μM.

V. metschnikovii = test: Bacteriostatic assay; assay type: cell-based; conditions: Vibrio metschnikovii, 20 h, NB medium, 37°C, 20 h culture; concentration at inhibitory rate of 95%
Method: A pre‐culture of V. metschnikovii was prepared in 5 mL of NB medium (3.0 g/L meat extract, 5.0 g/L meat peptone, 10.0 g/L NaCl, pH 7.0) at 37°C. When the OD600 reached ~0.6, 2 μL of the pre‐culture was inoculated into 200 μL of NB medium for the bacteriostatic assay. The culture was performed at 37°C in a 96‐well plate. Bacteriostatic agents (RA, DSS, and CA) were tested at a range of concentrations (5000 μM to 39 μM). The cultures without bacteriostatic agents were used as a natural growth control and the cultures without bacteria were used as the respective sterile controls (Blanks). The OD600 was measured using a microplate spectrophotometer (Benchmark Plus, Bio‐Rad).
The antibacterial inhibitory rates were calculated based on the following formula after culture for 20 h: Inhibitory rates%=1−OD600,NG−OD600,BKs−OD600,Is−OD600,BKs/OD600,NG−OD600,BKs×100%,
where NG, Is, and BKs refer to the natural growth control group, experimental groups with inhibitors, and their respective sterile control groups, respectively.
The inhibitory rate was plotted and fitted as a function of Log2(inhibitor concentration) using GraphPad Prism (version: 9.5.0) software with a nonlinear regression model. The MIC was calculated by reading the concentrations at the inhibitory rate of 95%.

Escherichia coli = system: Escherichia coli; design: method as in Lu et al. [2021]; conditions: 1000 μM; ref Lu et al. [2021]; cited from earlier work
[4] = Stability of RA in gel filtration buffer by RPC; assay type: physicochemical
Method: The stability of RA (1 mg/mL) in gel filtration buffer (20 mM Tris–HCl, pH 8.0, and 100 mM NaCl) at 20°C was assessed in the presence and absence of VmFbpA (molar ratio: 1 to 1) by the same RPC analysis. Sampling was performed every week and diluted 100 times with buffer before injecting into a RESOURCE RPC column. The other conditions are the same as described above.

(UniProt Z9CIZ5JT55) = test: 6×His-based VmFbpA inhibition assay (pull-down assay) of Fe3+ binding; assay type: biochemical, Vibrio metschnikovii; conditions: 60 min at 4°C, 20 mM Tris–HCl pH 8.0, 50 mM NaHCO3, 100 mM NaCl, read-out: IC50 to VmFbpA (inhibition of Fe^3+ binding)
Method: as §1, §2, §3

[5] = design: method as in Sik et al. [2021]; conditions: after 3 months of storage; ref Sik et al. [2021]; cited from earlier work
V. metchnikovii = system: V. metchnikovii; design: method as in Lu et al. [2021]; conditions: 1000 μM; ref Lu et al. [2021]; cited from earlier work

| SMILES | IC50 (VmFbpA [1]) [µM] | Kd (VmFbpA [2]) | EC50 [3] [µM] | MIC (V. metschnikovii) [µM] | effect on growth of Escherichia coli (Escherichia coli) | degradation of RA ([4]; 20 mM Tris–HCl pH 8.0, 100 mM NaCl, stored at 20°C for 1 week) [%] | degradation rate of RA ([4]; 20 mM Tris–HCl pH 8.0, 100 mM NaCl, stored at 20°C for 2 weeks) | change of degradation rate of RA in the presence of VmFbpA ([4]; VmFbpA added at molar ratio 1:1, gel filtration buffer) | IC50 ((UniProt Z9CIZ5JT55)) [µM] | hydrolysis rate of RA aqueous solution [5] | effect on growth of V. metchnikovii (V. metchnikovii) |
| --- | --- | --- | --- | --- | --- | --- | --- | --- | --- | --- | --- |
| O=C(O)/C=C/c1ccc(O)c(O)c1 [CA, caffeic acid] | 6000 ± 2000 | 18 µM and ~18 µM | 31 ± 1 | > 3000 |  |  |  |  |  |  |  |
| O=C(O)[C@H](O)Cc1ccc(O)c(O)c1 [DSS, danshensu] | 4000 ± 1000 | 0.9 µM and ~0.9 µM | 23 ± 1 |  |  |  |  |  |  |  |  |
| O=C(/C=C/c1ccc(O)c(O)c1)O[C@H](Cc1ccc(O)c(O)c1)C(=O)O [RA, Rosmarinic acid] |  | 1.1 ± 0.5 µM | 14.4 ± 0.1 | 440 ± 70 (≈ 159 µg/mL) | did not affect the growth | 5 | ~ 30% | did not change significantly | 2200 ± 300 | exceeded 10% | significantly reduced the growth |
